Experimental data as given in PubChem BioAssay (NCI).
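A five-concentration, 48-hour dose response in 96-well plates underlies each endpoint, interpolated linearly between surrounding concentrations. The concentration for full growth arrest is given as TGI.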

Columns and labels:
Test in all cases: NCI anticancer screen, dose series, 48 h
786-0 renal = tested on: 786-0 renal
A549 NSCLC = tested on: A549 NSCLC
ACHN renal = tested on: ACHN renal
CAKI-1 renal = tested on: CAKI-1 renal
CCRF-CEM leukemia = tested on: CCRF-CEM leukemia
COLO 205 colon = tested on: COLO 205 colon
DU-145 prostate = tested on: DU-145 prostate
EKVX NSCLC = tested on: EKVX NSCLC
HCC-2998 colon = tested on: HCC-2998 colon
HCT-116 colon = tested on: HCT-116 colon
HCT-15 colon = tested on: HCT-15 colon
HL-60(TB) leukemia = tested on: HL-60(TB) leukemia
HOP-62 NSCLC = tested on: HOP-62 NSCLC
HOP-92 NSCLC = tested on: HOP-92 NSCLC
HS 578T breast = tested on: HS 578T breast
HT29 colon = tested on: HT29 colon
IGROV1 ovarian = tested on: IGROV1 ovarian
K-562 leukemia = tested on: K-562 leukemia
LOX IMVI melanoma = tested on: LOX IMVI melanoma
M14 melanoma = tested on: M14 melanoma
MALME-3M melanoma = tested on: MALME-3M melanoma
MCF7 breast = tested on: MCF7 breast
MDA-MB-231 breast = tested on: MDA-MB-231 breast
MDA-MB-435 = tested on: MDA-MB-435
MDA-N = tested on: MDA-N
MOLT-4 leukemia = tested on: MOLT-4 leukemia
NCI-H226 lung = tested on: NCI-H226 lung
NCI-H23 lung = tested on: NCI-H23 lung
NCI-H460 lung = tested on: NCI-H460 lung
NCI/ADR-RES ovarian = tested on: NCI/ADR-RES ovarian
OVCAR-3 ovarian = tested on: OVCAR-3 ovarian
OVCAR-4 ovarian = tested on: OVCAR-4 ovarian
OVCAR-5 ovarian = tested on: OVCAR-5 ovarian
OVCAR-8 ovarian = tested on: OVCAR-8 ovarian
PC-3 prostate = tested on: PC-3 prostate
RPMI-8226 leukemia = tested on: RPMI-8226 leukemia
SF-268 CNS = tested on: SF-268 CNS
SF-295 CNS = tested on: SF-295 CNS
SF-539 CNS = tested on: SF-539 CNS
SK-MEL-2 melanoma = tested on: SK-MEL-2 melanoma
SK-MEL-28 melanoma = tested on: SK-MEL-28 melanoma
SK-MEL-5 melanoma = tested on: SK-MEL-5 melanoma
SK-OV-3 ovarian = tested on: SK-OV-3 ovarian
SN12C renal = tested on: SN12C renal
SNB-75 CNS = tested on: SNB-75 CNS
SR leukemia = tested on: SR leukemia
SW-620 colon = tested on: SW-620 colon
T-47D breast = tested on: T-47D breast
TK-10 renal = tested on: TK-10 renal
U251 CNS = tested on: U251 CNS
UACC-257 melanoma = tested on: UACC-257 melanoma
UACC-62 melanoma = tested on: UACC-62 melanoma
UO-31 renal = tested on: UO-31 renal
KM12 colon = tested on: KM12 colon
RXF 393 renal = tested on: RXF 393 renal

Compound: c1ccc2c(c1)c1c(n2CCOCCN2CCCC2)CCCC1
- TGI (786-0 renal): 29.6 µM
- TGI (A549 NSCLC): > 100 µM
- TGI (ACHN renal): 42.1 µM
- TGI (CAKI-1 renal): 96.9 µM
- TGI (CCRF-CEM leukemia): 51 µM
- TGI (COLO 205 colon): 38.2 µM
- TGI (DU-145 prostate): 87.2 µM
- TGI (EKVX NSCLC): 75.2 µM
- TGI (HCC-2998 colon): 30.2 µM
- TGI (HCT-116 colon): 32.5 µM
- TGI (HCT-15 colon): 31.2 µM
- TGI (HL-60(TB) leukemia): 30.4 µM
- TGI (HOP-62 NSCLC): 28.9 µM
- TGI (HOP-92 NSCLC): 86.9 µM
- TGI (HS 578T breast): 45.3 µM
- TGI (HT29 colon): 47.5 µM
- TGI (IGROV1 ovarian): 56.4 µM
- TGI (K-562 leukemia): 31.5 µM
- TGI (LOX IMVI melanoma): 33.9 µM
- TGI (M14 melanoma): 29.5 µM
- TGI (MALME-3M melanoma): 31.3 µM
- TGI (MCF7 breast): 31.3 µM
- TGI (MDA-MB-231 breast): 31 µM
- TGI (MDA-MB-435): 33.8 µM
- TGI (MDA-N): 35.8 µM
- TGI (MOLT-4 leukemia): 34.3 µM
- TGI (NCI-H226 lung): 49.5 µM
- TGI (NCI-H23 lung): 65.2 µM
- TGI (NCI-H460 lung): 30.5 µM
- TGI (NCI/ADR-RES ovarian): 44.3 µM
- TGI (OVCAR-3 ovarian): > 100 µM
- TGI (OVCAR-4 ovarian): 73.8 µM
- TGI (OVCAR-5 ovarian): 35.3 µM
- TGI (OVCAR-8 ovarian): 57.6 µM
- TGI (PC-3 prostate): 66 µM
- TGI (RPMI-8226 leukemia): 42.2 µM
- TGI (SF-268 CNS): > 100 µM
- TGI (SF-295 CNS): > 100 µM
- TGI (SF-539 CNS): 29.9 µM
- TGI (SK-MEL-2 melanoma): 30.7 µM
- TGI (SK-MEL-28 melanoma): 29.4 µM
- TGI (SK-MEL-5 melanoma): 30.3 µM
- TGI (SK-OV-3 ovarian): 87.7 µM
- TGI (SN12C renal): 33.6 µM
- TGI (SNB-75 CNS): 76 µM
- TGI (SR leukemia): 35.2 µM
- TGI (SW-620 colon): 32.1 µM
- TGI (T-47D breast): 61.9 µM
- TGI (TK-10 renal): 37 µM
- TGI (U251 CNS): 25.8 µM
- TGI (UACC-257 melanoma): 53 µM
- TGI (UACC-62 melanoma): 33.7 µM
- TGI (UO-31 renal): 43.2 µM

Compound: Cc1ccc(S(=O)(=O)OC2C(O)C(O)OC2C(c2cc(O)c3c(c2O)C(=O)c2ccccc2C3=O)c2cc(O)c3c(c2O)C(=O)c2ccccc2C3=O)cc1 (stereo unspecified)
- TGI (786-0 renal): > 10 µM
- TGI (A549 NSCLC): > 10 µM
- TGI (CAKI-1 renal): 8.9 µM
- TGI (CCRF-CEM leukemia): > 10 µM
- TGI (COLO 205 colon): 4.85 µM
- TGI (DU-145 prostate): > 10 µM
- TGI (EKVX NSCLC): > 10 µM
- TGI (HCC-2998 colon): > 10 µM
- TGI (HCT-15 colon): > 10 µM
- TGI (HL-60(TB) leukemia): 4.52 µM
- TGI (HOP-62 NSCLC): > 10 µM
- TGI (HT29 colon): > 10 µM
- TGI (IGROV1 ovarian): > 10 µM
- TGI (K-562 leukemia): > 10 µM
- TGI (KM12 colon): > 10 µM
- TGI (M14 melanoma): 8.71 µM
- TGI (MALME-3M melanoma): 6.98 µM
- TGI (MCF7 breast): > 10 µM
- TGI (MDA-MB-231 breast): > 10 µM
- TGI (MDA-N): > 10 µM
- TGI (MOLT-4 leukemia): > 10 µM
- TGI (NCI-H23 lung): 8.93 µM
- TGI (OVCAR-8 ovarian): > 10 µM
- TGI (PC-3 prostate): 9.43 µM
- TGI (RPMI-8226 leukemia): 8.67 µM
- TGI (RXF 393 renal): > 10 µM
- TGI (SF-295 CNS): 9.33 µM
- TGI (SK-MEL-28 melanoma): > 10 µM
- TGI (SK-MEL-5 melanoma): > 10 µM
- TGI (SK-OV-3 ovarian): > 10 µM
- TGI (SN12C renal): > 10 µM
- TGI (SNB-75 CNS): > 10 µM
- TGI (SR leukemia): > 10 µM
- TGI (SW-620 colon): > 10 µM
- TGI (T-47D breast): > 10 µM
- TGI (TK-10 renal): > 10 µM
- TGI (UACC-257 melanoma): > 10 µM
- TGI (UACC-62 melanoma): > 10 µM
